Among the data in US12376589B2, “Chryseobacterium insect inhibitory microbial compositions and methods of making and using” (priority 2021, dated 2025) are LC50 values, retold here.

SMILES strings stand for the structures. Converted amounts (≈) assume the structure as drawn. Like-named read-outs stand apart in the source and are kept apart here.

The subject of test [1] is Aedes aegypti larvae. Put plainly: whole plant or invertebrate. The following applies: Aedes aegypti. The source says:
(§1) Measuring potency of 3,3-diindolylmethane and 3-((1H-indol-2-yl)methyl)-1H-indole. 3,3′-Diindolylmethane (also called arundine, CAS number: 1968-05-4) was purchased from MILLIPORESIGMA (cat #74601) and Cayman Chemical (catalog #15927). 3-((1H-indol-2-yl)methyl)-1H-indole (CAS number: 114648-66-7) was purchased from Ambeed (catalog #A735658). Compounds were resuspended in dimethyl sulfoxide (DMSO). For collecting data to construct dose curves for 3,3-diindolylmethane and 3-((1H-indol-2-yl)methyl)-1H-indole, a series of twenty 1:2 dilutions was made to test in bioassays, establish a dose curve, and determine the LC50 value.
(§2) Aedes aegypti bioassays with compounds. Assays were performed using second or third instar larvae, with biological replication. Larvae were washed with sterile water before transfer to 24-well assay plates containing 1 mL of sterile water in each well. Each well contained 5 larvae. Compound dilutions were made in DMSO, topped with sterile NYSM broth and applied to each assay well. The final DMSO concentration was 1% in each assay well. Larval mortality was scored for each well at 24-hour timepoints after application.
Heat treatments. Samples were heated in 1.5-mL microfuge tubes in a standard laboratory heat block at the indicated temperature and time.
The EtOAc fraction was redissolved in MeOH and subjected to chromatographic fractionation (FIG. 11C) using preparative reversed-phase HPLC (Phenomenex Luna phenylhexyl, 21.2 mm×15 cm, 5 μm, 20 mL/min, isocratic elution with 80% H2O/MeCN for 2 min followed by gradient elution from 80% H2O/MeCN to 100% MeCN over 30 min then isocratic elution with 100% MeCN for 5 min) to yield 30 fractions. The preparative HPLC fractions (at concentrations of 200 μg/mL and 20 μg/mL) were tested against Aedes aegypti.

In test [2] the test system is Culex quinquefasciatus larvae. Put plainly: whole plant or invertebrate.
From the text: as §1
as §2, with “Culex quinquefasciatus” for “Aedes aegypti”, “compounds. First or second instar Culex quinquefasciatus larvae were purchased from Benzon Research, Inc. (Carlisle, PA).” for “compounds.”, “with” for “using second or”, “larvae.” for “larvae, with biological replication.”, “Larvae” for “Larval”

Setting [3] is: read-out: LC50 (representative curve fit).

With `c1ccc2[nH]c(Cc3c[nH]c4ccccc34)cc2c1` [3-((1H-indol-2-yl)methyl)-1H-indole], the LC50 turned out to be 5.8 µg/mL (≈ 23.5 µM) in test [1] (setting [3]), 6.3 ± 2.1 µg/mL (≈ 25.6 µM) in test [1] (read-out: mean LC50), 1.5 µg/mL (≈ 6.09 µM) in test [2] (setting [3]) and 0.95 ± 0.75 µg/mL (≈ 3.86 µM) in test [2] (read-out: mean LC50).
